Results on 19 compounds are retold here after patent US20230091047A1 (priority 2019, published 2023).

SMILES strings stand for the structures. Read-outs that look alike come from different tables or passages of the source. Some results are limits rather than exact numbers.

One series in a line: in vitro. It is filed as cell-based. The conditions noted are these: human, HepG2 or HepG2.117 cells, ATPlite, mean value. As for the experimental part: Cytotoxicity of the compounds was tested using HepG2 or HepG2.117 cells, incubated for 3 or 4 days in the presence of compounds. The viability of the cells was assessed using the PERKIN ELMER ATPlite Luminescence Assay System.”
On the technique in general: ATP-based viability assays read luminescence as a measure of living cells.

Series [1] concerns HBV (HepG2.117 cell line, inducibly HBV producing). Briefly: Anti-HBV activity: intracellular HBV DNA by real-time PCR in HepG2.117 cells after 3 days of treatment. It is filed as cell-based, hepatitis B virus. On the procedure:
The anti HBV activity was measured using the HepG2.117 cell line, a stable, inducibly HBV producing cell line, which replicates HBV in the absence of doxycycline (Tet-off system). The HepG2 cell line is available from ATCCR under number HB-8065. Transfection of the HepG2 cell line can be as described in Sun and Nassal 2006 Journal of Hepatology 45 (2006) 636-645 “Stable HepG2- and Huh7-based human hepatoma cell lines for efficient regulated expression of infectious hepatitis B virus”.
For the antiviral assay, HBV replication was induced, followed by a treatment with serially diluted compound in 96-well plates. After 3 days of treatment, the antiviral activity was determined by quantification of intracellular HBV DNA using real-time PCR and an HBV specific primer set and probe.
A general note: Real-time PCR tracks product formation cycle by cycle.

The mark [2] stands for this setting: 3-days incubation (unmarked values).
Setting [3] is: Hepatitis B virus, HepG2.117, 72 h, HepG2.117 cells, 3 days of treatment, intracellular HBV DNA by real-time PCR; mean value; read-out: EC50 (μM, mean value).
[4] abbreviates: 3-days incubation (not marked with *).
Where [5] appears, read: Hepatitis B virus, HepG2.117, 72 h, HepG2.117 cells, intracellular HBV DNA by real-time PCR, 3 days of treatment, mean value; read-out: EC50 (μM, mean value).

For `CNC(=O)OCC[C@H](Nc1nc2c(c(=O)n1-c1ccc(C(=O)NC)cc1)C[C@@H](C)N(C(=O)c1ccc(Cl)c(Cl)c1)C2)C1CC1` (single isomer, unassigned) [Compound C257, (3*S)-3-cyclopropyl-3-({(6R)-7-(3,4-dichlorobenzoyl)-6-methyl-3-[4-(methylcarbamoyl)phenyl]-4-oxo-3,4,5,6,7,8-hexahydropyrido[3,4-d]pyrimidin-2-yl}amino)propyl methylcarbamate], the CC50 at 3 days in “in vitro” (setting [2]) was more than 50 µM. Further, in series [1] (setting [3]), the concentration giving a half-maximal response (EC50) was 0.84 µM.
Regarding `CNC(=O)c1ccc(-n2c(N[C@H](CCO)C3CC3)nc3c(c2=O)C[C@@H](C)N(C(=O)c2ccc(Cl)c(Cl)c2)C3)cc1` (single isomer, unassigned) [Compound C283, 4-[(6R)-2-{[(1*R)-1-cyclopropyl-3-hydroxypropyl]amino}-7-(3,4-dichlorobenzoyl)-6-methyl-4-oxo-5,6,7,8-tetrahydropyrido[3,4-d]pyrimidin-3(4H)-yl]-N-methylbenzamide], the half-maximal cytotoxic concentration (CC50) at 3 days in the series “in vitro” (setting [2]) is more than 50 µM. In addition, the concentration giving a half-maximal response (EC50) in series [1] (setting [3]) is 5.52 µM.
Taken in the same sequence, the figures for `CNC(=O)c1ccc(-n2c(N[C@H](C)c3cccnc3OC)nc3c(c2=O)C[C@@H](C)N(C(=O)c2ccc(Cl)c(Cl)c2)C3)cc1` (single isomer, unassigned) [Compound C285, 4-[(6R)-7-(3,4-dichlorobenzoyl)-2-{[(1*R)-1-(2-methoxypyridin-3-yl)ethyl]amino}-6-methyl-4-oxo-5,6,7,8-tetrahydropyrido[3,4-d]pyrimidin-3(4H)-yl]-N-methylbenzamide] were 27.6 µM and 0.37 µM.
Taken in the same sequence, the figures for `CNC(=O)c1ccc(-n2c(N3CC[C@H]3C)nc3c(c2=O)C[C@@H](C)N(C(=O)c2ccc(Cl)c(Cl)c2)C3)cc1` (single isomer, unassigned) [Compound C311, 4-[(6R)-7-(3,4-dichlorobenzoyl)-6-methyl-2-[(2*R)-2-methylazetidin-1-yl]-4-oxo-5,6,7,8-tetrahydropyrido[3,4-d]pyrimidin-3(4H)-yl]-N-methylbenzamide] were more than 50 µM and 0.09 µM.
On the same counts, the results for `CNC(=O)c1ccc(-n2c(N3CC[C@@H]3C)nc3c(c2=O)C[C@@H](C)N(C(=O)c2ccc(Cl)c(Cl)c2)C3)cc1` (single isomer, unassigned) [Compound C312, 4-[(6R)-7-(3,4-dichlorobenzoyl)-6-methyl-2-[(2*S)-2-methylazetidin-1-yl]-4-oxo-5,6,7,8-tetrahydropyrido[3,4-d]pyrimidin-3(4H)-yl]-N-methylbenzamide] are more than 50 µM and 0.26 µM.
In turn, `CNC(=O)c1ccc(-n2c(NC(C)C)nc3c(c2=O)C[C@@H](C)N(C(=O)c2ccc(Cl)c(Cl)c2)C3)c(OC)c1` (single isomer, unassigned) [Compound C314a] came in with a half-maximal cytotoxic concentration (CC50) at 3 days in the series “in vitro” (setting [2]) of more than 50 µM. The EC50 in series [1] (HepG2.117 cells, 3 days of treatment, intracellular HBV DNA by real-time PCR; mean value; read-out: EC50 (μM, mean value)) was determined as 0.1 µM.
Compound `CNC(=O)c1ccc(-n2c(N[C@@H]3CCCC3(C)C)nc3c(c2=O)C[C@@H](C)N(C(=O)c2ccc(Cl)c(Cl)c2)C3)cc1` (single isomer, unassigned) [Compound C318, 4-[(6R)-7-(3,4-dichlorobenzoyl)-2-{[(1*R)-2,2-dimethylcyclopentyl]amino}-6-methyl-4-oxo-5,6,7,8-tetrahydropyrido[3,4-d]pyrimidin-3(4H)-yl]-N-methylbenzamide] came in with a CC50 at 3 days in “in vitro” (setting [2]) of 23.2 µM. Further, the EC50 in series [1] (setting [3]) worked out at 0.68 µM.
In the case of `CNC(=O)c1ccc(-n2c(N[C@H]3CCCC3(C)C)nc3c(c2=O)C[C@@H](C)N(C(=O)c2ccc(Cl)c(Cl)c2)C3)cc1` (single isomer, unassigned) [Compound C319, 4-[(6R)-7-(3,4-dichlorobenzoyl)-2-{[(1*S)-2,2-dimethylcyclopentyl]amino}-6-methyl-4-oxo-5,6,7,8-tetrahydropyrido[3,4-d]pyrimidin-3(4H)-yl]-N-methylbenzamide], the midpoint of cytotoxicity in “in vitro” (setting [2]), the CC50 at 3 days, lay at 23.5 µM. Moreover, the concentration for a half-maximal effect (EC50) in series [1] (setting [3]) came to 0.21 µM.
On the same counts, the results for `CNC(=O)c1ccc(-n2c(N[C@H](C)c3ccccn3)nc3c(c2=O)C[C@@H](C)N(C(=O)c2ccc(Cl)c(Cl)c2)C3)cc1` (single isomer, unassigned) [Compound C320, 4-[(6R)-7-(3,4-dichlorobenzoyl)-6-methyl-4-oxo-2-{[(1*R)-1-(pyridin-2-yl)ethyl]amino}-5,6,7,8-tetrahydropyrido[3,4-d]pyrimidin-3(4H)-yl]-N-methylbenzamide] are more than 50 µM and 0.27 µM.
Taken in the same sequence, the figures for `CNC(=O)c1ccc(-n2c(N[C@@H](C)c3ccccn3)nc3c(c2=O)C[C@@H](C)N(C(=O)c2ccc(Cl)c(Cl)c2)C3)cc1` (single isomer, unassigned) [Compound C321, 4-[(6R)-7-(3,4-dichlorobenzoyl)-6-methyl-4-oxo-2-{[(1*S)-1-(pyridin-2-yl)ethyl]amino}-5,6,7,8-tetrahydropyrido[3,4-d]pyrimidin-3(4H)-yl]-N-methylbenzamide] were more than 50 µM and 0.94 µM.
On the same counts, the results for `CNC(=O)c1ccc(-n2c(N[C@@H](c3ccccc3)C3CC3)nc3c(c2=O)C[C@@H](C)N(C(=O)c2ccc(Cl)c(Cl)c2)C3)cc1` (single isomer, unassigned) [Compound C342, 4-[(6R)-2-{[(*R)-cycopropyl(phenyl)methyl]amino}-7-(3,4-dichlorobenzoyl)-6-methyl-4-oxo-5,6,7,8-tetrahydropyrido[3,4-d]pyrimidin-3(4H)-yl]-N-methylbenzamide] are 16 µM and 0.37 µM.
For the compound `CNC(=O)c1ccc(-n2c(N[C@H](c3ccccc3)C3CC3)nc3c(c2=O)C[C@@H](C)N(C(=O)c2ccc(Cl)c(Cl)c2)C3)cc1` (single isomer, unassigned) [Compound C343, 4-[(6R)-2-{[(*S)-cycopropyl(phenyl)methyl]amino}-7-(3,4-dichlorobenzoyl)-6-methyl-4-oxo-5,6,7,8-tetrahydropyrido[3,4-d]pyrimidin-3(4H)-yl]-N-methylbenzamide], in the series “in vitro” (setting [2]), half-maximal cytotoxicity (CC50 at 3 days) was put at 13.7 µM. Further, the concentration giving a half-maximal response (EC50) in series [1] (setting [3]) worked out at 0.19 µM.
The compound `CNC(=O)c1ccc(-n2c(N[C@@H]3CCC34CCC4)nc3c(c2=O)C[C@@H](C)N(C(=O)c2ccc(Cl)c(Cl)c2)C3)cc1` (single isomer, unassigned) [Compound C346a] came in with a cytotoxic concentration (CC50) at 3 days in “in vitro” (setting [4]) of 27.6 µM. Further, in series [1] (setting [5]), the EC50 amounted to 0.94 µM.
On the same counts, the results for `CNC(=O)c1ccc(-n2c(N[C@H]3CCC34CCC4)nc3c(c2=O)C[C@@H](C)N(C(=O)c2ccc(Cl)c(Cl)c2)C3)cc1` (single isomer, unassigned) [Compound C346b] are more than 50 µM and 0.22 µM.
Taken in the same sequence, the figures for `CNC(=O)c1ccc(-n2c(N[C@H](C)c3ccc(OC)cc3)nc3c(c2=O)C[C@@H](C)N(C(=O)c2ccc(Cl)c(Cl)c2)C3)cc1` (single isomer, unassigned) [Compound C347a] were 35.1 µM and 0.1 µM.
On the same counts, the results for `CNC(=O)c1ccc(-n2c(N[C@@H](C)c3ccc(OC)cc3)nc3c(c2=O)C[C@@H](C)N(C(=O)c2ccc(Cl)c(Cl)c2)C3)cc1` (single isomer, unassigned) [Compound C347b] are more than 50 µM and 0.27 µM.
For the compound `CNC(=O)c1ccc(-n2c(N3CC[C@@H]3c3ccccc3)nc3c(c2=O)C[C@@H](C)N(C(=O)c2ccc(Cl)c(Cl)c2)C3)cc1` (single isomer, unassigned) [Compound C348, 4-[(6R)-7-(3,4-dichlorobenzoyl)-6-methyl-4-oxo-2-[(2*R)-2-phenylazetidin-1-yl]-5,6,7,8-tetrahydropyrido[3,4-d]pyrimidin-3(4H)-yl]-N-methylbenzamide], it took 31.2 µM to reach half-maximal cytotoxicity in “in vitro” (setting [2]) (CC50 at 3 days). Moreover, the EC50 in series [1] (setting [3]) came to 0.2 µM.
`CNC(=O)c1ccc(-n2c(N3CC[C@H]3c3ccccc3)nc3c(c2=O)C[C@@H](C)N(C(=O)c2ccc(Cl)c(Cl)c2)C3)cc1` (single isomer, unassigned) [Compound C349, 4-[(6R)-7-(3,4-dichlorobenzoyl)-6-methyl-4-oxo-2-[(2*S)-2-phenylazetidin-1-yl]-5,6,7,8-tetrahydropyrido[3,4-d]pyrimidin-3(4H)-yl]-N-methylbenzamide]: in the series “in vitro” (setting [2]), the CC50 at 3 days amounted to 31.7 µM. The EC50 in series [1] (setting [3]) was 0.32 µM.
As to `C#C[C@H]1CCCN1c1nc2c(c(=O)n1-c1ccc(C(=O)NC)cc1)C[C@@H](C)N(C(=O)c1ccc(Cl)c(Cl)c1)C2` (single isomer, unassigned) [Compound C350, 4-[(6R)-7-(3,4-dichlorobenzoyl)-2-[(2*R)-2-ethynylpyrrolidin-1-yl]-6-methyl-4-oxo-5,6,7,8-tetrahydropyrido[3,4-d]pyrimidin-3(4H)-yl]-N-methylbenzamide], the CC50 at 3 days in the series “in vitro” (setting [2]) was more than 50 µM. Besides, in series [1] (setting [3]), the EC50 came out at 0.23 µM.

Broadly, the CC50 is the concentration that lowers cell viability or growth by half. Broadly, the EC50 is the concentration needed to bring the measured effect to its halfway point.
